Assay results reported in US6218398A, “Nocathiacin antibiotics” (Bristol-Myers Squibb Company, priority 1999, dated 2001).

System: Enterococcus faecium strain A28152
Experiment: antibiotic susceptibility of the MREF strain
Type: cell-based
Settings: strain description; source not stated

Compound | resistance/sensitivity of E. faecium strain A28152 to the antibiotic
O=C(N[C@H](CO)[C@H](O)c1ccc([N+](=O)[O-])cc1)C(Cl)Cl [chloramphenicol] | sensitive
O=C(O)c1cn(C2CC2)c2cc(N3CCNCC3)c(F)cc2c1=O [ciprofloxacin] | resistant
CCC[C@@H]1C[C@@H](C(=O)N[C@@H]([C@H]2O[C@H](SC)[C@H](O)[C@@H](O)[C@H]2O)[C@H](C)Cl)N(C)C1 [clindamycin] | resistant
CC[C@H]1OC(=O)[C@H](C)[C@@H](O[C@H]2C[C@@](C)(OC)[C@@H](O)[C@H](C)O2)[C@H](C)[C@@H](O[C@@H]2O[C@H](C)C[C@H](N(C)C)[C@H]2O)[C@](C)(O)C[C@@H](C)C(=O)[C@H](C)[C@@H](O)[C@]1(C)O [erythromycin] | resistant
CC1(C)S[C@@H]2[C@H](NC(=O)Cc3ccccc3)C(=O)N2[C@H]1C(=O)O [penicillin G] | resistant
CO[C@H]1/C=C/O[C@@]2(C)Oc3c(C)c(O)c4c(O)c(c(/C=N/N5CCN(C)CC5)c(O)c4c3C2=O)NC(=O)/C(C)=C\C=C\[C@H](C)[C@H](O)[C@@H](C)[C@@H](O)[C@@H](C)[C@H](OC(C)=O)[C@@H]1C [rifampin] | resistant
[H]/N=C(/N)N[C@H]1[C@H](O)[C@@H](O)[C@H](O[C@@H]2O[C@@H](C)[C@](O)(C=O)[C@H]2O[C@@H]2O[C@@H](CO)[C@H](O)[C@@H](O)[C@@H]2NC)[C@@H](N/C(N)=N\[H])[C@@H]1O [streptomycin] | resistant
CN(C)C1C(=O)C(C(N)=O)=C(O)C2(O)C(=O)C3=C(O)c4c(O)cccc4C(C)(O)C3CC12 (centres unmarked) [tetracycline] | resistant
CN[C@H](CC(C)C)C(=O)N[C@H]1C(=O)N[C@@H](CC(N)=O)C(=O)N[C@H]2C(=O)N[C@H]3C(=O)N[C@H](C(=O)N[C@H](C(=O)O)c4cc(O)cc(O)c4-c4cc3ccc4O)[C@H](O)c3ccc(c(Cl)c3)Oc3cc2cc(c3O[C@@H]2O[C@H](CO)[C@@H](O)[C@H](O)[C@H]2O[C@H]2C[C@](C)(N)[C@H](O)[C@H](C)O2)Oc2ccc(cc2Cl)[C@H]1O [vancomycin] | resistant
gentamicin | resistant
teicoplanin | resistant

System: Gram-positive bacteria
Experiment: not given
Settings: reported for known thiazolyl peptides; cited from earlier work

Compound | antimicrobial activity against Gram-positive bacteria in vitro
CO/C(C)=C1/NC(=O)[C@H]([C@@H](C)O)NC(=O)c2csc(n2)-c2cc(O)c(-c3nc(C(N)=O)cs3)nc2-c2csc(n2)[C@@H]2CSC(=O)c3[nH]c4cccc5c4c3CO[C@@H](C(NC(=O)c3csc1n3)c1nc(cs1)C(=O)N2)[C@@H](O[C@H]1C[C@](C)(O)[C@H](N(C)C)[C@H](C)O1)C(=O)OC5 [glycothiohexide-α] | potent antimicrobial activity
C=C(NC(=O)c1csc(-c2nc3c(cc2O)-c2nc(cs2)C(=O)NC(C(C)O)C(=O)N/C(=C\C)c2nc(cs2)C(=O)NC2CC(O)C(=O)OCc4cccc5[nH]c(c(C)c45)C(=O)SCC(NC(=O)c4csc2n4)c2nc-3cs2)n1)C(N)=O (centres unmarked) [nosiheptide] | potent antimicrobial activity
C=C(NC(=O)C(=C)NC(=O)c1csc(C2=N[C@@H]3c4csc(n4)[C@H]4NC(=O)c5csc(n5)[C@H]([C@](C)(O)[C@@H](C)O)NC(=O)[C@H]5CSC(=N5)/C(=C/C)NC(=O)[C@H]([C@@H](C)O)NC(=O)c5csc(n5)[C@]3(CC2)NC(=O)[C@H](C)NC(=O)C(=C)NC(=O)[C@H](C)NC(=O)[C@H]([C@@H](C)CC)N[C@@H]2C=Cc3c([C@H](C)O)cc(nc3[C@H]2O)C(=O)O[C@@H]4C)n1)C(N)=O [thiostrepton] | potent antimicrobial activity
